Assay results reported in patent EP0326418A1, “GRF analogs” (THE UPJOHN COMPANY, priority 1988, dated 1989).
Where a SMILES comes first, the peptide text is derived from it. [ ]: non-standard residue; d: D form. Cya = N[C@@H](CS(=O)(=O)O)C(=O)O

Experiments:
[1] = tested on: bovine anterior pituitary cell culture; type: cell-based
[2] = tested on: meal-fed Holstein steers; assay: serum growth hormone (GH) response after intravenous injection in steers (Procedure B); type: in vivo; conditions: in comparison to the standard bGRF(1-44)NH₂ (Area 100%), procedure B, second study
From the text: The synthetic peptides prepared in Examples 1, 2 and 3 (Compounds 1, 2 and 3 respectively), bGRF(1-44)NH2 and […] bGRF(1-32)NH2 were also given to meal-fed Holstein steers by intravenous injection (Procedure B) and the serum growth hormone (GH) response evaluated. […] In comparison to bGRF(1-44)NH2 (100%), the area under the GH response curve was 122% for […] bGRF(1-32)NH2, 100% for Compound #1, 106% for Compound #2, and 111% for Compound #3. Holstein steers (265 +/- 5kg) were housed in individual stalls 18-20°C) and exposed to 16h light:8h darkness (lights on at 0400h). Steers are meal-fed once daily at 1000h and trained to consume their total daily feed intake in 2 h. The diet consisted of rolled corn plus a mineral/vitamin premix and alfalfa hay cubes fed at 160% maintenance energy requirements on a bodyweight basis. Steers gained approximately 0.75 kg/h/d. In a 5 x […] Latin Square design 10 steers were assigned randomly to receive the following treatments. (a) bGRF(1-44)NH2, (b) […] bGRF(1-32)NH2, (c) Compound #3, (d) Compound #1, and (e) Compound #2. The GRFs were dissolves in saline (10μg/ml) and administered at 3nM/100 kg bodyweight as single iv injection at 0800 h, 2 h between feeding. A cannula was inserted into a jugular vein at least one day before treatment. Blood (6 ml) was collected at 20-min interval from 40 min before until 120 min after injection with additional samples collected at 5, 10 and 15 min after injection. Serum obtained from the samples was assayed from GH concentration. The number of steers responding to injection fo the various GRFs tested (P=0.42) ranged from 9 of 10 to 10 of 10 depending on the treatment. Using procedure B, compounds were tested for growth hormone release in steers. In comparison to the standard bGRF(1-44)NH2 (Area 100%), the test compounds gave the following relative growth hormone areas: Compound 4, 233%; compound 5, 140%; compound 6, 160%; compound 7, 126%; compound 8, 307%; compound 9, 260%; and compound 11, 173%.

[3] = proteolytic stability in bovine plasma (HPLC, modified Frohman method); conditions: bovine plasma

remaining at 1 h [3]: 86%
Compound: CC[C@H](C)[C@H](NC(=O)[C@H](C)NC(=O)[C@H](CS(=O)(=O)O)NC(=O)[C@@H](C)NC(=O)[C@@H](N)Cc1c[nH]cn1)C(=O)N[C@@H](Cc1ccccc1)C(=O)N[C@H](C(=O)N[C@@H](CC(N)=O)C(=O)N[C@@H](CO)C(=O)N[C@@H](Cc1ccc(O)cc1)C(=O)N[C@@H](CCCNC(=N)N)C(=O)N[C@@H](CCCCN)C(=O)N[C@H](C(=O)N[C@@H](CC(C)C)C(=O)N[C@@H](C)C(=O)N[C@@H](CCC(N)=O)C(=O)N[C@@H](CC(C)C)C(=O)N[C@@H](CO)C(=O)N[C@@H](C)C(=O)N[C@@H](CCCNC(=N)N)C(=O)N[C@@H](CCCCN)C(=O)N[C@@H](CC(C)C)C(=O)N[C@@H](CC(C)C)C(=O)N[C@@H](CCC(N)=O)C(=O)N[C@@H](CC(=O)O)C(=O)N[C@H](C(=O)N[C@@H](CC(C)C)C(=O)N[C@@H](CC(N)=O)C(=O)N[C@@H](CCCNC(=N)N)C(=O)N[C@@H](CCC(N)=O)C(=O)N[C@@H](CCC(N)=O)C(=O)NCC(N)=O)[C@@H](C)CC)C(C)C)[C@@H](C)O [Compound 11, His¹, D-Ala², Cya³, Ala¹⁵, Leu²⁷-bGRF(1-32)NH₂] (H-H[dA][Cya]AIFTNSYRKVLAQLSARKLLQDILNRQQG-NH2)
the potency of bGRF(1-44)NH₂ [1]: 0.28
relative growth hormone areas [2]: 173%
